± gives the standard deviation of the averaged measurements.
Test system: HepaRG
Assay: LDH release cytotoxicity, % of total lysis control; higher = more cytotoxic
Details: 48 h
In short: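 On collagen I-coated 96-well plates, single-lot HepaRG cells were exposed for 48 h, in duplicate, to eight-point half-log series of test chemicals beginning at 100 µM. The exposure medium was serum-free induction medium with 0.5% DMSO, and total lysis wells got 0.1% Triton X. Resorufin fluorescence from the CytoTox-ONE reaction, read on a Tecan Safire, reported LDH in 50 µL of spent medium. Percent cytotoxicity came from normalization to on-plate vehicle and total lysis controls, averaged over the duplicates.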

Row | SMILES | LDH release cytotoxicity (0.03162 µM) | LDH release cytotoxicity (0.1 µM) | LDH release cytotoxicity (0.3162278 µM) | LDH release cytotoxicity (1 µM) | LDH release cytotoxicity (3.16228 µM) | LDH release cytotoxicity (10 µM) | LDH release cytotoxicity (31.6228 µM) | LDH release cytotoxicity (100 µM) | LDH release cytotoxicity (0.031623 µM) | LDH release cytotoxicity (0.316228 µM)
1 | O=C1CCC(C2CCCCC2)CC1 [4-Cyclohexylcyclohexanone] | -0.737 ± 0.094% | -0.435 ± 0.51% | -0.827 ± 0.45% | -0.822 ± 0.7% | -0.588 ± 1.1% | 0.479 ± 0.26% | 0.205 ± 0.41% | 0.739 ± 1.3% |  | 
2 | C#CC(O)C(CC)CCCC (configuration not stated) [4-Ethyloct-1-yn-3-ol] | -1.1 ± 1.3% | -0.852 ± 0.24% | -1.73 ± 0.62% | -1.75 ± 0.33% | -0.91 ± 0.66% | -1.32 ± 0.19% | -1.07 ± 0.15% | 0.266 ± 0.29% |  | 
3 | CCCCCCCc1ccc(O)cc1 [4-Heptylphenol] | -0.653 ± 0.82% | -1.61 ± 0.21% | -0.99 ± 0.5% | -1.03 ± 0.079% | -1.8 ± 0.76% | -0.598 ± 0.18% | -0.324 ± 0.52% | 0.525% |  | 
4 | CCCCCCc1ccc(O)cc1O [4-Hexylresorcinol] | -1.87 ± 0.26% | -0.709 ± 0.041% | -0.736 ± 1.1% | -1.64 ± 0.45% | -1.6 ± 1% | -1.36 ± 0.29% | 0.152 ± 0.4% | 1.18 ± 0.84% |  | 
5 | COc1cc(C=O)ccc1O [4-Hydroxy-3-methoxybenzaldehyde] |  | -2.63 ± 0.42% |  | -4.06 ± 0.31% | -3.91 ± 0.7% | -3.69 ± 0.35% | -3.12 ± 0.07% | 0.307 ± 0.14% | -0.0885 ± 1.4% | -3.71 ± 0.71%
6 | CCC(=C(c1ccc(O)cc1)c1ccc(OCCN(C)C)cc1)c1ccccc1 [4-Hydroxytamoxifen] |  | -3.22 ± 0.47% |  | -3.76 ± 0.11% | -3.7 ± 0.16% | -3.42 ± 0.63% | -3.18 ± 0.93% | -0.0951 ± 1.1% | -1.94 ± 1% | -3.61 ± 1.1%
7 | CC(C)CC(C)O (configuration not stated) [4-Methyl-2-pentanol] | -0.36 ± 0.0099% | -0.242 ± 0.16% | -1.1 ± 0.37% | -1.21 ± 0.61% | -1.33 ± 0.84% | -1.04 ± 0.65% | 0.165 ± 0.21% | 2.03 ± 1% |  | 
8 | Cc1ccc(N)cc1 [4-Methylaniline] | -1.74 ± 0.54% | -1.26 ± 0.25% | -1.71 ± 0.048% | -2.15 ± 0.07% | -1.82 ± 0.86% | -1.12 ± 0.11% | -1.47 ± 0.87% | 0.2 ± 0.81% |  | 
9 | Nc1ccc([N+](=O)[O-])cc1 [4-Nitroaniline] | -1.77 ± 1.4% | -2.08 ± 0.69% | -1.811 ± 0.018% | -1.58 ± 0.75% | -1.84 ± 0.43% | -0.905 ± 0.22% | 0.842 ± 1.3% | -0.219 ± 0.45% |  | 
10 | O=C(O)c1ccc([N+](=O)[O-])cc1 [4-Nitrobenzoic acid] | -2.11 ± 0.46% | -1.22 ± 0.03% | -0.728 ± 0.58% | -0.721 ± 1.3% | -1.62 ± 0.43% | -0.906 ± 0.7% | -0.392 ± 0.1% | 1.32 ± 1.1% |  | 
11 | O=[N+]([O-])c1ccc(O)cc1 [4-Nitrophenol] | -0.152 ± 0.3% | -1.48 ± 0.38% | -1.18 ± 0.11% | -1.8 ± 1.2% | -0.936 ± 0.28% | -1.26 ± 0.099% | -0.409 ± 0.81% | -0.082 ± 0.47% |  | 
12 | Cc1ccc([N+](=O)[O-])cc1 [4-Nitrotoluene] | -0.445 ± 0.2% | -1.19 ± 1.1% | -0.0775 ± 0.88% | -0.642 ± 0.3% | -0.56 ± 0.64% | -0.236 ± 0.032% | -0.713 ± 0.035% | 1.62 ± 0.18% |  | 
13 | CC(C)CCCCCCc1ccc(O)cc1 [4-Nonylphenol, branched] | -2.12 ± 0.23% | -1.46 ± 0.5% | -1.72 ± 0.52% | -1.24 ± 0.36% | -1.58 ± 0.073% | -1.23 ± 0.036% | -0.532 ± 0.65% | -0.17 ± 1% |  | 
14 | CCCCCCCCCc1ccc(O)cc1 [4-Nonylphenol] | -1.27 ± 0.19% | -0.659 ± 0.11% | -1.49 ± 0.82% | -1.65 ± 0.14% | -0.715 ± 0.039% | 0.445 ± 1.6% | -0.17 ± 0.57% | 1.51 ± 1.1% |  | 
